Results reported in patent US10844077B2, “Thiazolyl-containing compounds for treating proliferative diseases” (Dana-Farber Cancer Institute, Inc., priority 2014, dated 2020).
Values joined by “and” are separate entries in the source; they are usually repeats but may differ in a detail not shown here. Equal entries are not always repeated. Where two headings read alike, the source gives them in different places.

Tests used:
Assay type in all cases: cell-based
kinases in BCWM.1 cells [1] = biological target: kinases in BCWM.1 cells (Homo sapiens, UniProt Q04759); conditions: PKCt; ATP Loop; 1 μM, 90 min; GF
Procedure: (§1) The cells were harvested and lysed. […] Bound kinases were identified and quantitated by ACTIVX as described in Patricelli et al., Biochemistry, 2007, 46(2): 350-358. The compounds were tested in duplicates against duplicate or quadruplicate control samples.

kinases in BCWM.1 cells [2] = biological target: kinases in BCWM.1 cells (Homo sapiens, UniProt P27448); conditions: MARK3; Lys1; 1 μM; GF
Procedure: as §1

kinases in BCWM.1 cells [3] = biological target: kinases in BCWM.1 cells (Homo sapiens, UniProt Q13535); conditions: ATR; ATP; 1 μM; GF
Procedure: as §1

kinases in BCWM.1 cells [4] = biological target: kinases in BCWM.1 cells (Homo sapiens, UniProt P49760); conditions: CLK2; Lys2; 1 μM; GF
Procedure: as §1

kinases in BCWM.1 cells [5] = biological target: kinases in BCWM.1 cells (Homo sapiens, UniProt Q13233); conditions: MAP3K1; Lys2; 1 μM; GF
Procedure: as §1

kinases in BCWM.1 cells [6] = biological target: kinases in BCWM.1 cells (Homo sapiens, UniProt Q02156); conditions: PKCe; Lys2; 1 μM, 90 min; GF
Procedure: as §1

kinases in BCWM.1 cells [7] = biological target: kinases in BCWM.1 cells (Homo sapiens, UniProt P80192); conditions: MLK1; Lys2; 1 μM; GF
Procedure: as §1

kinases in BCWM.1 cells [8] = biological target: kinases in BCWM.1 cells (Homo sapiens, UniProt Q15831); conditions: LKB1; Lys2; 1 μM; GF
Procedure: as §1

kinases in BCWM.1 cells [9] = biological target: kinases in BCWM.1 cells (Homo sapiens, UniProt Q00534); conditions: CDK6; Lys2; 1 μM; GF
Procedure: as §1

kinases in BCWM.1 cells [10] = biological target: kinases in BCWM.1 cells (Homo sapiens, UniProt P50750); conditions: CDK9; Lys2; 1 μM; GF
Procedure: as §1

kinases in BCWM.1 cells [11] = biological target: kinases in BCWM.1 cells (Homo sapiens, UniProt P24941); conditions: CDK2; Lys2; 1 μM; GF
Procedure: as §1

kinases in BCWM.1 cells [12] = biological target: kinases in BCWM.1 cells (Homo sapiens, UniProt P49841); conditions: GSK3B; Lys2; 1 μM; GF
Procedure: as §1

kinases in BCWM.1 cells [13] = biological target: kinases in BCWM.1 cells (Homo sapiens, UniProt O75676); conditions: MSK2 domain1; Lys2; 1 μM; GF
Procedure: as §1

kinases in BCWM.1 cells [14] = biological target: kinases in BCWM.1 cells (Homo sapiens, UniProt P15056); conditions: BRAF; Lys2; 1 μM; GF
Procedure: as §1

kinases in BCWM.1 cells [15] = biological target: kinases in BCWM.1 cells (Homo sapiens, UniProt O14976); conditions: GAK; Lys2; 1 μM; GF
Procedure: as §1

kinases in BCWM.1 cells [16] = biological target: kinases in BCWM.1 cells (Homo sapiens, UniProt Q9UK32); conditions: RSK4 domain1; Lys2; 1 μM, 90 min; GF
Procedure: as §1

kinases in BCWM.1 cells [17] = biological target: kinases in BCWM.1 cells (Homo sapiens, UniProt P51617); conditions: IRAK1; Lys2; 1 μM; GF
Procedure: as §1

kinases in BCWM.1 cells [18] = biological target: kinases in BCWM.1 cells (Homo sapiens, UniProt O95835); conditions: LATS1; Lys1; 1 μM; GF
Procedure: as §1

kinases in BCWM.1 cells [19] = biological target: kinases in BCWM.1 cells (Homo sapiens, UniProt Q14004)
Procedure: as §1

kinases in BCWM.1 cells [20] = biological target: kinases in BCWM.1 cells (Homo sapiens, UniProt Q13164); conditions: Erk5; Lys2; 1 μM; GF
Procedure: as §1

kinases in BCWM.1 cells [21] = biological target: kinases in BCWM.1 cells (Homo sapiens, UniProt O00418); conditions: eEF2K; ATP; 1 μM; GF
Procedure: as §1

kinases in BCWM.1 cells [22] = biological target: kinases in BCWM.1 cells (Homo sapiens, UniProt Q9NRM7); conditions: LATS2; Lys2; 1 μM; GF
Procedure: as §1

kinases in BCWM.1 cells [23] = biological target: kinases in BCWM.1 cells (Homo sapiens, UniProt Q9C0K7); conditions: STLK6; Lys1; 1 μM, 90 min; GF
Procedure: as §1

kinases in BCWM.1 cells [24] = biological target: kinases in BCWM.1 cells (Homo sapiens, UniProt Q13418); conditions: ILK, 1 μM, GF
Procedure: as §1

kinases in BCWM.1 cells [25] = biological target: kinases in BCWM.1 cells (Homo sapiens, UniProt Q9Y616); conditions: IRAK3; Lys1; 1 μM; GF
Procedure: as §1

kinases in BCWM.1 cells [26] = biological target: kinases in BCWM.1 cells (Homo sapiens, UniProt Q14164); conditions: IKKe; Lys1; 1 μM; GF
Procedure: as §1

kinases in BCWM.1 cells [27] = biological target: kinases in BCWM.1 cells (Homo sapiens, UniProt P29323); conditions: EphB2; Activation Loop; 1 μM; GF
Procedure: as §1

kinases in BCWM.1 cells [28] = biological target: kinases in BCWM.1 cells (Homo sapiens, UniProt P07332); conditions: FES; Lys1; 1 μM; GF
Procedure: as §1

kinases in BCWM.1 cells [29] = biological target: kinases in BCWM.1 cells (Homo sapiens, UniProt Q9Y6E0); conditions: MST3; Lys2; 1 μM; GF
Procedure: as §1

kinases in BCWM.1 cells [30] = biological target: kinases in BCWM.1 cells (Homo sapiens, UniProt O14936); conditions: CASK; Lys1; 1 μM; GF
Procedure: as §1

Sequence of kinases in BCWM.1 cells (Homo sapiens, UniProt O00418) (O00418 2-725 limits assumed): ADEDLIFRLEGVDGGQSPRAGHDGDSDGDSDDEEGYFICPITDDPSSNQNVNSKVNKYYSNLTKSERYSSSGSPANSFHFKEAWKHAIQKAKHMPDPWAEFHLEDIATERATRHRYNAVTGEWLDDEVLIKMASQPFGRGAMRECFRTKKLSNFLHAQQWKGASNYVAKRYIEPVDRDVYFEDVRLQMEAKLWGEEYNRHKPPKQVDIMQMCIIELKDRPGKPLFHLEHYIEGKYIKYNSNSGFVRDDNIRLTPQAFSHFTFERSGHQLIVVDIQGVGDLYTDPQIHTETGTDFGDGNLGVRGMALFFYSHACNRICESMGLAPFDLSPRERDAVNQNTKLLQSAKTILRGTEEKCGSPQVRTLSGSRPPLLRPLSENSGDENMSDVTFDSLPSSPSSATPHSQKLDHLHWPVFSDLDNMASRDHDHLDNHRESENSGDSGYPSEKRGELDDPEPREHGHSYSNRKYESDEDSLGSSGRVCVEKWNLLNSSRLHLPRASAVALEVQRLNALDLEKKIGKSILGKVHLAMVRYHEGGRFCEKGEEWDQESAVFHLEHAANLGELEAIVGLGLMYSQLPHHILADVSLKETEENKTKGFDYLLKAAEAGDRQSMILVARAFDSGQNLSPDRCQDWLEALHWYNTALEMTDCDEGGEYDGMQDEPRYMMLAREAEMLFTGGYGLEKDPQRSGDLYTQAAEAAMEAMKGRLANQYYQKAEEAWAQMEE
Sequence of kinases in BCWM.1 cells (Homo sapiens, UniProt P15056) (P15056 2-766 limits assumed): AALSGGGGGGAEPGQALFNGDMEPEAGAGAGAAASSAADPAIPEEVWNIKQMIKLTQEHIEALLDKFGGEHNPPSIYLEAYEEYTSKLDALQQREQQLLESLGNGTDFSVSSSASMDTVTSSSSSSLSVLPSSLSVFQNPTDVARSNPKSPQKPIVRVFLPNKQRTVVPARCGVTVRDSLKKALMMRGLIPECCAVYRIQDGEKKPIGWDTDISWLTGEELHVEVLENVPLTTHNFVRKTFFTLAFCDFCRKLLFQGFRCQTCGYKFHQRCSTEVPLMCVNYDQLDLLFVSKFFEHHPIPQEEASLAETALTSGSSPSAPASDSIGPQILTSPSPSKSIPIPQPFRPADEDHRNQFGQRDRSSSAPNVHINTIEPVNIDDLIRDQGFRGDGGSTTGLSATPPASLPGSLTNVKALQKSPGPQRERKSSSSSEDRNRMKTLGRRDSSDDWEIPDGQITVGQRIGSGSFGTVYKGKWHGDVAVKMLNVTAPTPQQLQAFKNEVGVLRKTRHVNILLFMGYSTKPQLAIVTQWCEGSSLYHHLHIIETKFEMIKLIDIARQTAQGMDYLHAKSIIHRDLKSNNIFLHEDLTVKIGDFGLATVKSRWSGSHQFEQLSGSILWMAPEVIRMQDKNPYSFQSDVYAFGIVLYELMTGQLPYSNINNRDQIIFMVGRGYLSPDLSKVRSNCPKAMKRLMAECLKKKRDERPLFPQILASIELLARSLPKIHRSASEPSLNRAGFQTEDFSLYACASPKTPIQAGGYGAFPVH
Sequence of kinases in BCWM.1 cells (Homo sapiens, UniProt Q13233) (Q13233 2-1512 limits assumed): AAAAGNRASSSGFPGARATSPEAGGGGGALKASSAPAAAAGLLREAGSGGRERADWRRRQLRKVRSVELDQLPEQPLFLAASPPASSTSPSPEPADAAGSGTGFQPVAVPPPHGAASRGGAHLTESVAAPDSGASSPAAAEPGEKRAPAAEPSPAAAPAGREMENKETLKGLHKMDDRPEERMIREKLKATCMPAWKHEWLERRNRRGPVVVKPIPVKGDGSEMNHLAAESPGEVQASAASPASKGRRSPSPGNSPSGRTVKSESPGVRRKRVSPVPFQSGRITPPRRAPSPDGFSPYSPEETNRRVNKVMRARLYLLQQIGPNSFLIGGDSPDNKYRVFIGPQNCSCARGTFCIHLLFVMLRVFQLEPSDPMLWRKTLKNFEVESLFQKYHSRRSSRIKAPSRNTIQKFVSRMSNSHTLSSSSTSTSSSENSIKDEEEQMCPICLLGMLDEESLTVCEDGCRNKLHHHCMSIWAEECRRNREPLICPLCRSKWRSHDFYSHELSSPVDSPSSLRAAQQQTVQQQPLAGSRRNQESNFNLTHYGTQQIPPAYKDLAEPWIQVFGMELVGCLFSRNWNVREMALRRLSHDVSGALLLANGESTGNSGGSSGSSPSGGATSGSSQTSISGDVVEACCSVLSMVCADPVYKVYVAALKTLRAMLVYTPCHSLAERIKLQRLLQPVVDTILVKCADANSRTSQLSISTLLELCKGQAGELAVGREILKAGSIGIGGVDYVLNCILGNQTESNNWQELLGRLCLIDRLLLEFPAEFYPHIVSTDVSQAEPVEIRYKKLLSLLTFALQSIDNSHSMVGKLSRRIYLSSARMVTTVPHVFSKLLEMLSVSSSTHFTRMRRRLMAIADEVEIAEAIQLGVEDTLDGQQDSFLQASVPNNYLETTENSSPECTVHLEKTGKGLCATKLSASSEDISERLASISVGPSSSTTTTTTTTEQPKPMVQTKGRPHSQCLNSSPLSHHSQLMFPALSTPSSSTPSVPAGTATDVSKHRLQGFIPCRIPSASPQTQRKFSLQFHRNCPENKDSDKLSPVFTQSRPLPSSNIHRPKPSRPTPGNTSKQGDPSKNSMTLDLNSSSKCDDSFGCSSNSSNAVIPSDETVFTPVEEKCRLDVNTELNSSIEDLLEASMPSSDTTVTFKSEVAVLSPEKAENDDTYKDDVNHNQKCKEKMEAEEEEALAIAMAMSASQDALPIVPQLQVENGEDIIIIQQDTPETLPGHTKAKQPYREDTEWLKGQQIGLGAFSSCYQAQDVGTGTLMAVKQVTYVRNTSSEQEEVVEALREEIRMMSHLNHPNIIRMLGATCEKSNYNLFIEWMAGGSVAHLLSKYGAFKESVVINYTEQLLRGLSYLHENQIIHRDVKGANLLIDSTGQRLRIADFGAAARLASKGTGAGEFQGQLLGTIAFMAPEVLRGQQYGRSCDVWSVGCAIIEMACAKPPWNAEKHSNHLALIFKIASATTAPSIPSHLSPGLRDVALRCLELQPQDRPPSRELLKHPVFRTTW
Sequence of kinases in BCWM.1 cells (Homo sapiens, UniProt Q13164) (Q13164 2-816 limits assumed): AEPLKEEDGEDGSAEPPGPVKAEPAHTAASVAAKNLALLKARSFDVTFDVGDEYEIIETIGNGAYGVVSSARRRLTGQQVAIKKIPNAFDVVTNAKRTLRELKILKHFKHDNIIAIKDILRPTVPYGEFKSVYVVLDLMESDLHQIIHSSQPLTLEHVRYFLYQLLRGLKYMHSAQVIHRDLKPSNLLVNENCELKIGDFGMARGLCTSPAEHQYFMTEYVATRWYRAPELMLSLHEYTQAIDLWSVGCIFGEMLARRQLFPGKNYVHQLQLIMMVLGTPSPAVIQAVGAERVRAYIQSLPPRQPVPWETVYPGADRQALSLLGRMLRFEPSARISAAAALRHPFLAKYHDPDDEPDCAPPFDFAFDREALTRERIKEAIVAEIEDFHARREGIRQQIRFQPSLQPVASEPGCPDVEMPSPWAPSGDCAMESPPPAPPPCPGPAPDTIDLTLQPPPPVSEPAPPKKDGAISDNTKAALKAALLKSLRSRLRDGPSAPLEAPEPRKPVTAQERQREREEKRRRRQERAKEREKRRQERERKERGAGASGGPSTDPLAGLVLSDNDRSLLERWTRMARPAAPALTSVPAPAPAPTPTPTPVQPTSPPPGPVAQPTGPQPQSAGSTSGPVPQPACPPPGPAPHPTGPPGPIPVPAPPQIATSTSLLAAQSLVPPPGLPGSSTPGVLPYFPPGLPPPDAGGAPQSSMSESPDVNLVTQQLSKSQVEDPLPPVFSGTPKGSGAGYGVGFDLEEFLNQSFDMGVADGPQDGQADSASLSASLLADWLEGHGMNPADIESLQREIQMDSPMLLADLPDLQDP
Sequence of kinases in BCWM.1 cells (Homo sapiens, UniProt P29323) (P29323 19-1055 limits assumed): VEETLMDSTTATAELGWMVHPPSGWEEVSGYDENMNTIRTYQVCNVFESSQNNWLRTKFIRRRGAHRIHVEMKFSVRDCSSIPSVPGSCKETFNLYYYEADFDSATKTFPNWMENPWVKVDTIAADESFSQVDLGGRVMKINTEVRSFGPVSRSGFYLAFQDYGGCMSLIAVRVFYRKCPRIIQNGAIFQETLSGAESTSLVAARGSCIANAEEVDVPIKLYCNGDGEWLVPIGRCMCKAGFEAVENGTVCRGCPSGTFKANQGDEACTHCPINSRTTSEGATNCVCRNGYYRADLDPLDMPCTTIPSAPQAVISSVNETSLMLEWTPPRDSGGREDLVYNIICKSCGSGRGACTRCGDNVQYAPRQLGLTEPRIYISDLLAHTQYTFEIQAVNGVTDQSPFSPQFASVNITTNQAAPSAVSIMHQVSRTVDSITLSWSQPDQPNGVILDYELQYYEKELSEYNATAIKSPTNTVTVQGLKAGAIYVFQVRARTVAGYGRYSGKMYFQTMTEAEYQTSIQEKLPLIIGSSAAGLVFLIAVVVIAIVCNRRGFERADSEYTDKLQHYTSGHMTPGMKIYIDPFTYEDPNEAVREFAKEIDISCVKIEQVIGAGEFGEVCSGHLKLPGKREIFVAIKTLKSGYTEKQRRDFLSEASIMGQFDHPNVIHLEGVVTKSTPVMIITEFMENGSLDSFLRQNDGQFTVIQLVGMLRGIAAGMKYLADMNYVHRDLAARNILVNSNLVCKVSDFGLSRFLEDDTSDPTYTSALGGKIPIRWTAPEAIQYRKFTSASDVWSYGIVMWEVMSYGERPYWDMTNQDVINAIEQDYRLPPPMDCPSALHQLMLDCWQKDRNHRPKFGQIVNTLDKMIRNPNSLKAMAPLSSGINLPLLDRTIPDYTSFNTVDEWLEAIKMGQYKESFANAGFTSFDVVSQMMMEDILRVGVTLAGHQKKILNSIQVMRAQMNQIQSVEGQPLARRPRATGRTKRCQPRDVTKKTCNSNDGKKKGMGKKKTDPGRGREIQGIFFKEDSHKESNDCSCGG

C=CC(=O)N1CC[C@H](Nc2nccc(Nc3ncc(C(=O)Nc4c(C)cccc4C)s3)n2)C1 [Example I-3]
% change of MS signal compared to control sample (kinases in BCWM.1 cells [1]): 23.5%

CCC(=O)N1CC[C@H](Nc2nccc(Nc3ncc(C(=O)Nc4c(C)cccc4C)s3)n2)C1 [Example I-9]
% change of MS signal compared to control sample (kinases in BCWM.1 cells [2]): −6.4% and −4.8% | % change of MS signal compared to control sample (kinases in BCWM.1 cells [3]): 28.1% and 16.5% | % change of MS signal compared to control sample (kinases in BCWM.1 cells [4]): −19.3% and −10.6% | % change of MS signal compared to control sample (kinases in BCWM.1 cells [5]): 11.1% and 9.8% | % change of MS signal compared to control sample (kinases in BCWM.1 cells [6]): −7% | % change of MS signal compared to control sample (kinases in BCWM.1 cells [7]): 1% and 9% | % change of MS signal compared to control sample (kinases in BCWM.1 cells [8]): −11.2% and −7.4% | % change of MS signal compared to control sample (kinases in BCWM.1 cells [9]): 2.7% and 3.5% | % change of MS signal compared to control sample (kinases in BCWM.1 cells [10]): 32.7% and 23.1% | % change of MS signal compared to control sample (kinases in BCWM.1 cells [11]): −8.7% and −4.3% | % change of MS signal compared to control sample (kinases in BCWM.1 cells [12]): −9.8% and −1.3% | % change of MS signal compared to control sample (kinases in BCWM.1 cells [13]): −27% and −18.7% | % change of MS signal compared to control sample (kinases in BCWM.1 cells [14]): −18.3% and −12.9% | % change of MS signal compared to control sample (kinases in BCWM.1 cells [15]): 33.8% | % change of MS signal compared to control sample (kinases in BCWM.1 cells [16]): 15.8% | % change of MS signal compared to control sample (kinases in BCWM.1 cells [17]): −2.6% and −3.2% | % change of MS signal compared to control sample (kinases in BCWM.1 cells [18]): −2.8% and 5.4% | % change of MS signal compared to control sample (kinases in BCWM.1 cells [19]): 5.7% and 15.3% | % change of MS signal compared to control sample (kinases in BCWM.1 cells [20]): −1.8% and 1.1% | % change of MS signal compared to control sample (kinases in BCWM.1 cells [21]): −51.4% and −48.7% | % change of MS signal compared to control sample (kinases in BCWM.1 cells [22]): −12.3% and −5.1% | % change of MS signal compared to control sample (kinases in BCWM.1 cells [23]): 4.8% | % change of MS signal compared to control sample (kinases in BCWM.1 cells [24]; Lys1): −1.9% and 1.2% | % change of MS signal compared to control sample (kinases in BCWM.1 cells [24]; Protein Kinase Domain): 24.5% and 12.4% | % change of MS signal compared to control sample (kinases in BCWM.1 cells [25]): 7.2% and −1.4% | % change of MS signal compared to control sample (kinases in BCWM.1 cells [26]): −12.6% and −6.1% | % change of MS signal compared to control sample (kinases in BCWM.1 cells [27]): 81.7% and 85.6% | % change of MS signal compared to control sample (kinases in BCWM.1 cells [28]): −11.2% and −3.9% | % change of MS signal compared to control sample (kinases in BCWM.1 cells [29]): −1.9% and −1.4% | % change of MS signal compared to control sample (kinases in BCWM.1 cells [30]): −10.4%
